Patent publication US8722849B2, “Polypeptides” (Novo Nordisk A/S, priority 2011, dated 2014)
Starred links: 1 amine or outer side, 2 acyl side, 3 side chain; linkers in the order of their positions; H or OH if unused. Positions of bridges follow the written chain, without caps; N, C: chain ends. Non-standard residues stand in square brackets, D forms with d. Residues, ends and D or L forms follow the SMILES beside them. *: point of attachment. C20 diacid = O=C(O)CCCCCCCCCCCCCCCCCCC(=O)*; C18 diacid = O=C(O)CCCCCCCCCCCCCCCCC(=O)*; γGlu = O=C(O)[C@H](CCC(=O)[*:2])N[*:1]; Orn = NCCC[C@H](N)C(=O)O; AEEA = NCCOCCOCC(=O)O

Experiments:
Type in all cases: cell-based
[1] = biological target: T1, rat amylin 3(a) receptor (rat calcitonin(a) receptor + rat RAMP3) (Rattus norvegicus, UniProt P32214+Q9JJ73); test: Assay (II)b functional cAMP FlashPlate assay, rat amylin receptor; conditions: Table 11
T1 construct: expressed in transfected cells; host or cells: BHK tk'ts 13
T1 sequence (P32214 25-479 isoform P32214-2 limits assumed): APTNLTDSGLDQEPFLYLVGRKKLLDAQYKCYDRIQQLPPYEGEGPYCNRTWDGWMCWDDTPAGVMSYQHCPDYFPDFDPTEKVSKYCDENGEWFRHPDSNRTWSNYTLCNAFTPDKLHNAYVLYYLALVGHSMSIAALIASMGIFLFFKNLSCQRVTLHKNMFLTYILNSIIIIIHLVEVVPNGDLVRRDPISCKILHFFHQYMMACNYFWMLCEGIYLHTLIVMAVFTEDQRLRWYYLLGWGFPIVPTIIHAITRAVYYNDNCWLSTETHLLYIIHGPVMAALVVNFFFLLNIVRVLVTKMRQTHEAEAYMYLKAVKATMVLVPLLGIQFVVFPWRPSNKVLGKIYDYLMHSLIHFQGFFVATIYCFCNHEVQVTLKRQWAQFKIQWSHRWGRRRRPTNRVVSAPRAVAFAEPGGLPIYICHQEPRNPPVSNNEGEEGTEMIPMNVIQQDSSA
T1 sequence (Q9JJ73 23-147 partner): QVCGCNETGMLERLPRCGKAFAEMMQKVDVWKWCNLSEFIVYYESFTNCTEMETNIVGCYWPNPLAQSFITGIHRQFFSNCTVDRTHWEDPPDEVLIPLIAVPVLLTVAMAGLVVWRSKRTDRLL
In short: (§1)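 cAMP accumulation in transiently transfected BHK tk'ts 13 cells, 100.000 cells/well, expressing rat calcitonin(a) receptor or its RAMP3 co-expression form (amylin 3(a)): 30 min stimulation with IBMX, 24 hours post-transfection. Readout by competition of cellular versus radiolabelled cAMP in FlashPlates, scintillation counted after 3 h.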

[2] = biological target: T2, rat calcitonin (a) receptor (Rattus norvegicus, UniProt P32214); test: Assay (II)b functional cAMP FlashPlate assay, rat calcitonin receptor; conditions: Table 11; read-out: CTa receptor rat EC50
T2 construct: expressed in transfected cells; host or cells: BHK tk'ts 13
T2 sequence (P32214 25-479 isoform P32214-2 limits assumed): T1 sequence (P32214 25-479 isoform P32214-2 limits assumed)
In short: as §1

[3] = biological target: T3, human calcitonin receptor (Homo sapiens, UniProt P30988); test: Assay (II)a functional CRE-luciferase assay, human calcitonin receptor; conditions: Table 7; human calcitonin (CTa) receptor
T3 construct: expressed in transfected cells; host or cells: BHK570
T3 sequence (P30988 25-474): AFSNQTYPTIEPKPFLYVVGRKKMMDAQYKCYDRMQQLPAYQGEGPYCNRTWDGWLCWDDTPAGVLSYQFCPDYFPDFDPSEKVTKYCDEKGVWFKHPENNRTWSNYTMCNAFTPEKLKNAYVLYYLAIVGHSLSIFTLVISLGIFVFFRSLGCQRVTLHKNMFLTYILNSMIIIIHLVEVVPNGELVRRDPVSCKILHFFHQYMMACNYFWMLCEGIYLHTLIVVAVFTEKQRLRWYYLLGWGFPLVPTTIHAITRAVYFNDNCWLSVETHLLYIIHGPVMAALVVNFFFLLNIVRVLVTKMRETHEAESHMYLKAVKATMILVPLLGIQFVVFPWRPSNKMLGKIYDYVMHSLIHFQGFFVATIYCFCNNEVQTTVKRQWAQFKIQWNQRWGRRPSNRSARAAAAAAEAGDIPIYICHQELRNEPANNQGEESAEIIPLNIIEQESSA

SMILES | EC50 [1] | EC50 [2] | EC50 [3]
CC[C@H](C)[C@H](NC(=O)[C@@H]1CCCN1C(=O)CNC(=O)[C@H](Cc1ccccc1)NC(=O)[C@H](CC(N)=O)NC(=O)[C@H](CC(N)=O)NC(=O)[C@H](CO)NC(=O)[C@H](CO)NC(=O)[C@H](Cc1c[nH]cn1)NC(=O)[C@H](Cc1c[nH]cn1)NC(=O)[C@H](CC(C)C)NC(=O)[C@H](Cc1ccccc1)NC(=O)[C@H](CCC(=O)O)NC(=O)[C@H](C)NC(=O)[C@H](CC(C)C)NC(=O)[C@H](CCCNC(=N)N)NC(=O)[C@H](CCC(N)=O)NC(=O)[C@@H](NC(=O)[C@H](C)NC(=O)[C@@H]1CSSC[C@H](NC(=O)[C@H](CCCCN)NC(=O)CC[C@H](NC(=O)CCCCCCCCCCCCCCCCC(=O)O)C(=O)O)C(=O)N[C@@H](CC(N)=O)C(=O)N[C@@H]([C@@H](C)O)C(=O)N[C@@H](C)C(=O)N[C@@H]([C@@H](C)O)C(=O)N1)[C@@H](C)O)C(=O)N[C@@H](CC(C)C)C(=O)N1CCC[C@H]1C(=O)N1CCC[C@H]1C(=O)N[C@H](C(=O)N[C@@H](CC(N)=O)C(=O)N[C@H](C(=O)NCC(=O)N[C@@H](CO)C(=O)N[C@@H](CC(N)=O)C(=O)N[C@H](C(=O)N[C@@H](Cc1ccc(O)cc1)C(N)=O)[C@@H](C)O)C(C)C)[C@@H](C)O [Example 46, N-alpha-[(S)-4-Carboxy-4-(17-carboxyheptadecanoylamino)butyryl]-[Glu14,His17]-pramlintide] ({C18 diacid-γGlu}-KCNTATCATQRLAEFLHHSSNNFGPILPPTNVGSNTY-NH2; disulfide 2-7 (inferred); C-terminus assumed) | 0.122 nM | 0.433 nM | 0.0792 nM
CC[C@H](C)[C@H](NC(=O)[C@@H]1CCCN1C(=O)CNC(=O)[C@H](Cc1ccccc1)NC(=O)[C@H](CC(N)=O)NC(=O)[C@H](CC(N)=O)NC(=O)[C@H](CO)NC(=O)[C@H](CO)NC(=O)[C@H](Cc1c[nH]cn1)NC(=O)[C@H](CCCNC(=N)N)NC(=O)[C@H](CC(C)C)NC(=O)[C@H](Cc1ccccc1)NC(=O)[C@H](CCC(=O)O)NC(=O)[C@H](C)NC(=O)[C@H](CC(C)C)NC(=O)[C@H](CCCNC(=N)N)NC(=O)[C@H](CCC(N)=O)NC(=O)[C@@H](NC(=O)[C@H](C)NC(=O)[C@@H]1CSSC[C@H](NC(=O)[C@H](CCCCN)NC(=O)CC[C@H](NC(=O)CCCCCCCCCCCCCCCCC(=O)O)C(=O)O)C(=O)N[C@@H](CC(N)=O)C(=O)N[C@@H]([C@@H](C)O)C(=O)N[C@@H](C)C(=O)N[C@@H]([C@@H](C)O)C(=O)N1)[C@@H](C)O)C(=O)N[C@@H](CC(C)C)C(=O)N1CCC[C@H]1C(=O)N1CCC[C@H]1C(=O)N[C@H](C(=O)N[C@@H](CC(N)=O)C(=O)N[C@H](C(=O)NCC(=O)N[C@@H](CO)C(=O)N[C@@H](Cc1c[nH]cn1)C(=O)N[C@H](C(=O)N[C@@H](Cc1ccc(O)cc1)C(N)=O)[C@@H](C)O)C(C)C)[C@@H](C)O [Example 61, N-alpha-[(S)-4-Carboxy-4-(17-carboxyheptadecanoylamino)butyryl]-[Glu14,Arg17,His35]-pramlintide] ({C18 diacid-γGlu}-KCNTATCATQRLAEFLRHSSNNFGPILPPTNVGSHTY-NH2; disulfide 2-7 (inferred)) | 0.038 nM | 2.36 nM | 0.335 nM
CC[C@H](C)[C@H](NC(=O)[C@@H]1CCCN1C(=O)CNC(=O)[C@H](Cc1ccccc1)NC(=O)[C@H](CC(N)=O)NC(=O)[C@H](CC(N)=O)NC(=O)[C@H](CO)NC(=O)[C@H](CO)NC(=O)[C@H](Cc1c[nH]cn1)NC(=O)[C@H](CCCNC(=N)N)NC(=O)[C@H](CC(C)C)NC(=O)[C@H](Cc1ccccc1)NC(=O)[C@H](CCC(=O)O)NC(=O)[C@H](C)NC(=O)[C@H](CC(C)C)NC(=O)[C@H](CCCNC(=N)N)NC(=O)[C@H](CCC(N)=O)NC(=O)[C@@H](NC(=O)[C@H](C)NC(=O)[C@@H]1CSSC[C@H](NC(=O)[C@H](Cc2c[nH]cn2)NC(=O)CNC(=O)CC[C@H](NC(=O)CCCCCCCCCCCCCCCCCCC(=O)O)C(=O)O)C(=O)N[C@@H](CC(N)=O)C(=O)N[C@@H]([C@@H](C)O)C(=O)N[C@@H](C)C(=O)N[C@@H]([C@@H](C)O)C(=O)N1)[C@@H](C)O)C(=O)N[C@@H](CC(C)C)C(=O)N1CCC[C@H]1C(=O)N1CCC[C@H]1C(=O)N[C@H](C(=O)N[C@@H](CC(N)=O)C(=O)N[C@H](C(=O)NCC(=O)N[C@@H](CO)C(=O)N[C@@H](CC(N)=O)C(=O)N[C@H](C(=O)N1CCC[C@H]1C(N)=O)[C@@H](C)O)C(C)C)[C@@H](C)O [Example 89, N-alpha-[(S)-4-Carboxy-4-(19-carboxynonadecanoylamino)butyryl]-Gly-[His1,Glu14,Arg17,Pro37]-pramlintide] ({C20 diacid-γGlu}-GHCNTATCATQRLAEFLRHSSNNFGPILPPTNVGSNTP-NH2; disulfide 3-8 (inferred)) | 0.151 nM | 0.114 nM | 0.0395 nM
CC[C@H](C)[C@H](NC(=O)[C@@H]1CCCN1C(=O)CNC(=O)[C@H](Cc1ccccc1)NC(=O)[C@H](CC(N)=O)NC(=O)[C@H](CC(N)=O)NC(=O)[C@H](CO)NC(=O)[C@H](CO)NC(=O)[C@H](CCCNC(=N)N)NC(=O)[C@H](Cc1c[nH]cn1)NC(=O)[C@H](CC(C)C)NC(=O)[C@H](Cc1ccccc1)NC(=O)[C@H](CCC(=O)O)NC(=O)[C@H](C)NC(=O)[C@H](CC(C)C)NC(=O)[C@H](CCCNC(=N)N)NC(=O)[C@H](CCC(N)=O)NC(=O)[C@@H](NC(=O)[C@H](C)NC(=O)[C@@H]1CSSC[C@H](NC(=O)[C@H](CCCN)NC(=O)[C@@H](CCCNC(=N)N)NC(=O)[C@@H](CCCNC(=N)N)NC(=O)COCCOCCNC(=O)COCCOCCNC(=O)CC[C@H](NC(=O)CCCCCCCCCCCCCCCCC(=O)O)C(=O)O)C(=O)N[C@@H](CC(N)=O)C(=O)N[C@@H]([C@@H](C)O)C(=O)N[C@@H](C)C(=O)N[C@@H]([C@@H](C)O)C(=O)N1)[C@@H](C)O)C(=O)N[C@@H](CC(C)C)C(=O)N1CCC[C@H]1C(=O)N1CCC[C@H]1C(=O)N[C@H](C(=O)N[C@@H](CC(N)=O)C(=O)N[C@H](C(=O)NCC(=O)N[C@@H](CO)C(=O)N[C@@H](CC(N)=O)C(=O)N[C@H](C(=O)N[C@@H](Cc1ccc(O)cc1)C(N)=O)[C@@H](C)O)C(C)C)[C@@H](C)O [Example 120, N-alpha-[2-(2-{2-[2-(2-{2-[(S)-4-Carboxy-4-(17-carboxyheptadecanoylamino)butyrylamino]ethoxy}ethoxy)acetylamino]ethoxy}ethoxy)acetyl]-D-Arg-D-Arg-[Orn1,Glu14,His17,Arg18]-pramlintide] ({C18 diacid-γGlu-AEEA-AEEA}-[dR][dR][Orn]CNTATCATQRLAEFLHRSSNNFGPILPPTNVGSNTY-NH2; disulfide 4-9 (inferred); C-terminus assumed) | 0.033 nM | 2.57 nM | 0.691 nM
